We go through one compound from US10814019B2, “MRI signal suppression agents, compositions, and methods” (University of Washington, priority 2014, dated 2020).

The nature of data set [1]: mDixon signal intensity of whole venous blood samples containing Ablavar. It is filed as physicochemical. Here is the method: Six in vitro whole venous blood samples each contained a different concentration (0, 2, 4, 6, 8, and 12 mM) of gadofosveset trisodium (Ablavar). For long echo time pairs (e.g., 11.5 ms/12.7 ms), the signal intensity decreased rapidly with Ablavar concentration greater than about 4 mM.

The conditions of data set [2]: in vivo; cited from earlier work.

SMILES strings stand for the structures.

Regarding `O=C([O-])CN(CCN(CC(=O)[O-])CC(COP(=O)([O-])OC1CCC(c2ccccc2)(c2ccccc2)CC1)N(CC(=O)[O-])CC(=O)[O-])CC(=O)[O-].[Gd+3].[Na+].[Na+].[Na+]` (stereo not drawn) [Ablavar, gadofosveset trisodium], the “signal intensity relative to pure blood” value in data set [1] (12 mM Ablavar, echo times as short as 6.9 ms/8.1 ms) is given as “below that of pure blood”. For the same compound, the “Ablavar concentration above which signal intensity decreased rapidly” value in data set [1] (long echo time pairs (e.g., 11.5 ms/12.7 ms)) was “greater than 4 mM”. Also, in data set [2], the half-life entry is given as “about 30 minutes”.
